The record followed here is US4400387A, “Indolizine derivatives and uses in therapeutics” (S. A. Labaz-Sanofi N.V., priority 1979, dated 1983).

Data set [1] addresses T1, adenosine deaminase obtained from calf intestine (Bos taurus, UniProt P56658).
T1 construct: purchased
T1 sequence (P56658 1-363): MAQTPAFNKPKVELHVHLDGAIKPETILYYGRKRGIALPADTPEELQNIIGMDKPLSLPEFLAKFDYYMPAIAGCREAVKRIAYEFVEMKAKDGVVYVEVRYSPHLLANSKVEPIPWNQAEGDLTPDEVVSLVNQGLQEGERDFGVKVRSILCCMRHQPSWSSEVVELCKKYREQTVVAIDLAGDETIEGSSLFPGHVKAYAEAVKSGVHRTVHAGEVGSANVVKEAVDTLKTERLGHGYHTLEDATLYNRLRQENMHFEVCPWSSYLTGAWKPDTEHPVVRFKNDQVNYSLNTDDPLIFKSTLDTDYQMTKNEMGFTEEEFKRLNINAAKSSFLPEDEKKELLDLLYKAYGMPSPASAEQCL
The experiment in a line: Inhibition of the action of adenosine deaminase in vitro (decrease in absorbance at 265 nm). The conditions noted are these: pH 7.4, 30° C. The format is biochemical. The protocol:
This test was performed with adenosine deaminase obtained from calf intestine.
(§1) The experimental procedure described hereunder was used:
In the absorption cell the following solutions were introduced:
2.7 ml of a 0.1 molar phosphate buffer solution (pH=7.4)
0.3 ml of a 10^-4 or 5.10^-4 molar solution of adenosine in the phosphate buffer solution (final concentration in adenosine: 10^-5 or 5.10^-5 mol) 0.01 ml of a 3.10^-3 molar ethanolic solution of the compound to be studied (about 10 milliunits)
The contents of the absorption cell were allowed to incubate for 2 minutes and then the enzymatic reaction was started by adding 0.03 ml of a commercial adenosine deaminase solution having a known concentration in enzyme. The reaction was performed at 30° C. and followed by spectrophotometric recording of the decrease in absorbance at 265 nm due to the transformation of adenosine into inosine by means of adenosine deaminase. This enzymatic reaction can be represented by the following equation: [formula]
The same measurements were performed with a control solution containing all the ingredients referred to above except the compound being studied. Curves were then plotted representing the decrease in absorbance in comparison with time obtained on the one hand with the solution containing the inhibitor and on the other with the control solution.
The slope of both curves was measured and expressed in the number of mols of inosine formed in one minute. After that, the percent of inhibition of the activity of adenosine deaminase provoked by a compound of the invention was calculated.

Data set [2] addresses T2, adenosine deaminase in ascites cells (Krebs II) (Mus musculus, UniProt P03958).
T2 construct: tested in intact cells by incubating ascites cells (Krebs II); endogenous in cells; host or cells: Krebs II ascites cells
T2 sequence (P03958 1-352): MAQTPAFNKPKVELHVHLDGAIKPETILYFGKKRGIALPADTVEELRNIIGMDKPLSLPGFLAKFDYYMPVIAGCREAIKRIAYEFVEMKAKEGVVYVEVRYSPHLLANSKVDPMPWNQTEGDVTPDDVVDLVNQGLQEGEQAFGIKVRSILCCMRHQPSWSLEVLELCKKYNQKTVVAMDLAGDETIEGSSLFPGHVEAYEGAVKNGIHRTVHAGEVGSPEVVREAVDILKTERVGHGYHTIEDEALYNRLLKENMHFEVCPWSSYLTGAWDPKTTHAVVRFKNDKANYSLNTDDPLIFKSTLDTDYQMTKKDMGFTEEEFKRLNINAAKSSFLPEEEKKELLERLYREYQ
The experiment in a line: Inhibition of adenosine deamination in intact ascites cells (14C adenosine). The format is cell-based. The conditions noted are these: 14C adenosine 5.10^-5 M, read-out: concentration at which deamination of adenosine by ascites cells was 50% inhibited (converted). The method, then:
The inhibition of the action of adenosine deaminase by these two above-cited compounds has also been tested in intact cells by incubating ascites cells (Krebs II) in the presence of ^14 C adenosine at a concentration of 5.10^-5 M and by measuring the formation of inosine and hypoxanthine ^14 C. The deamination of adenosine due to the ascites cells was 50% inhibited in the presence of 2.10^-6 M of 1-bromo-2-phenyl-3-(3-bromo-4-hydroxy-benzoyl)-indolizine and of 10^-6 M of 1-bromo-2-(4-fluoro-phenyl)-3-(3-bromo-4-hydroxy-benzoyl)-indolizine.

Data set [3] in a line: Acute toxicity tests in mice. It counts as in vivo. The conditions noted are these: 20 mg/kg by intravenous route. The protocol:
Acute toxicity tests were performed in mice with compounds of the invention.

Data set [4] concerns the target T1, adenosine deaminase obtained from calf intestine. Briefly: Inhibition of the action of adenosine deaminase in vitro (decrease in absorbance at 265 nm). The conditions noted are these: compound at a concentration of 10^-6 M. The format is biochemical.
The target in data set [5] is T3, xanthine oxidase found in milk (Bos taurus, UniProt P80457).
T3 construct: purchased
Briefly: Inhibition of the action of xanthine oxidase in vitro (U.V. spectrophotometry, formation of uric acid from hypoxanthine). The format is biochemical. The settings on record: compound at 10^-5 M; hypoxanthine substrate, pH 7.4, 37° C. The protocol: This trial was performed with xanthine oxidase found in milk. The activity of the enzymatic preparation was measured by following the formation of uric acid starting from hypoxanthine in the presence of oxygen and of a phosphate buffer solution.
as §1
In the absorption cell, the following solutions were introduced:
1.5 ml of a 0.1 molar phosphate buffer solution (pH=7.4) saturated with oxygen.
0.3 ml of a 1 m molar solution of ethylene diamine tetraacetate.
0.01 ml of a commercial xanthine oxidase solution having a known concentration in enzyme.
0.01 ml of a 3.10^-3 molar ethanolic solution of the compound to be tested.
The contents of the absorption cell were allowed to incubate for 2 minutes and then the enzymatic reaction was started by adding 0.3 ml of a 10^-3 molar solution of hypoxanthine to the absorption cell. The reaction was followed by spectrophotometric recording of the oxidation rate of hypoxanthine at 293 nm and at 37° C. The optical density was automatically registered. The same measurements were performed with a control solution containing all the ingredients referred to above except the compound being tested.
In this way, a curve representing the variation in optical density in comparison with time was obtained with the solution containing the inhibitor on the one hand and devoid of inhibitor on the other. The slope of both curves was measured and expressed in the number of mols of uric acid formed in one minute. Thus, it was possible to compare the values obtained and calculate, in percent, the inhibition of the activity of xanthine oxidase provoked by a compound of the invention.

Data set [6] can be described thus: Uricosuric action in humans after a single oral dose. The format is in vivo. The conditions noted are these: single oral dose 300 mg. The method, then:
The uricosuric action was determined in humans after a single dose of 300 mg of 2-ethyl-3-(3,5-dibromo-4-hydroxy-benzoyl)-indolizine by oral route.

Data set [7] addresses T3, xanthine oxidase found in milk. The experiment in a line: Inhibition of the action of xanthine oxidase in vitro (U.V. spectrophotometry, formation of uric acid from hypoxanthine). The format is biochemical. The settings on record: compound at a concentration of 10^-6 M.
In another data set the test system is HSV-1 (KOS). The experiment in a line: Herpetic skin lesions and mortality of nu/nu mice inoculated with HSV-1 (KOS), topical Ara-A and/or compound. The format is in vivo. The conditions noted are these: topical 1% in dimethylsulfoxide, 4 times daily days 0-4. The protocol:
This test was carried out in order to determine the effects of adenine arabinoside (Ara-A) and compounds of the invention on the incidence of herpetic skin lesions and mortality of nu/nu mice inoculated with HSV-1 (KOS). Athymic nude (nu/nu) mice, 20 to 25 days old, were inoculated intracutaneously with HSV-1 (KOS) at about 10^4.5 PFU (plaque-forming units) per mouse. Ara-A and/or a compound of the invention were applied topically at 1% in dimethylsulfoxide, 4 times daily on days 0, 1, 2, 3 and 4. The number of mice with epidermal lesion (necrosis of at least 5 to 10 mm long) per total number of mice alive was registered.

T3 sequence (P80457 whole entry): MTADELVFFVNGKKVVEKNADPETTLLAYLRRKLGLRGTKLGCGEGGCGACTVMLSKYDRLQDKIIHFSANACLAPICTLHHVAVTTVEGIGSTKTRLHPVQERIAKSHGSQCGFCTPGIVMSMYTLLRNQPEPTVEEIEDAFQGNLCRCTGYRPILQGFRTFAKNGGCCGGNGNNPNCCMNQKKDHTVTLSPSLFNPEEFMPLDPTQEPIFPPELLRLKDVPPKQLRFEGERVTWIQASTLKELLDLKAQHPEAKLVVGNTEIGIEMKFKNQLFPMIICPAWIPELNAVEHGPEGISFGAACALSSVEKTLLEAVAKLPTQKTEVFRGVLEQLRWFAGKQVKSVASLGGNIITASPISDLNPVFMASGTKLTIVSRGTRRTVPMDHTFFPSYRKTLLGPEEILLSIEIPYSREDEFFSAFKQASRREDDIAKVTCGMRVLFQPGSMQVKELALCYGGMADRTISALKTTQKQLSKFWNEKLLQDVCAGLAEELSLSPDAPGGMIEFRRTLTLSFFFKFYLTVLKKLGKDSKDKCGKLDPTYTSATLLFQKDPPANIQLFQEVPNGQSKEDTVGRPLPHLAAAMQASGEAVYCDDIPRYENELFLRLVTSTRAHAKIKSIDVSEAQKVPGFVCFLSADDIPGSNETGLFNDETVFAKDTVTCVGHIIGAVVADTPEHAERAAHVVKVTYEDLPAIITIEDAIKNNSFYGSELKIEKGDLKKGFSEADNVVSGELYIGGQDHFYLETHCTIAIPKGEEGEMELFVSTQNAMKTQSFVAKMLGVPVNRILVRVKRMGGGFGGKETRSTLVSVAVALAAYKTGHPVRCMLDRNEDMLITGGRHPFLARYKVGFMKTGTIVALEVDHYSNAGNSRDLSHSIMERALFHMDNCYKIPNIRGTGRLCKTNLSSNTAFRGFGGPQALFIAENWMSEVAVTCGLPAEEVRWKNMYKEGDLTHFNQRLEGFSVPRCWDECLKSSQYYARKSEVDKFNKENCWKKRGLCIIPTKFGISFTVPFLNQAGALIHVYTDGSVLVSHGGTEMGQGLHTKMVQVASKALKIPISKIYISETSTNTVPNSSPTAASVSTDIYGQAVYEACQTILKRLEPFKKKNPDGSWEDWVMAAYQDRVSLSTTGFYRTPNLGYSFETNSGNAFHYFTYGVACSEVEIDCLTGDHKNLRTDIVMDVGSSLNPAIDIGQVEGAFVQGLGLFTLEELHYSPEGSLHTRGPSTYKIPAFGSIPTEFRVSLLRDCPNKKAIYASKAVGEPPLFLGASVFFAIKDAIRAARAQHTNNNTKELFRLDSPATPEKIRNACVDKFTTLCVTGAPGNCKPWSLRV

By inhibition is commonly meant the share of the control response that was lost under treatment. Low readings indicate little suppression, high ones strong suppression. On to `O=C(c1ccc(O)c(Br)c1)c1c(-c2ccc(F)cc2)c(Br)c2ccccn12` [4-Fluoro-phenyl Br Br H, 1-Bromo-2-(4-fluoro-phenyl)-3-(3-bromo-4-hydroxy-benzoyl)-indolizine], for which, in data set [1], the “Inhibition of the action of adenosine deaminase in vitro (in %) At 5.10^-5 M adenosine” value (“Inhibition … (in %) At 5.10^-5 M adenosine” for short) stood at 94% and the “Inhibition of the action of adenosine deaminase in vitro (in %) At 10^-5 M adenosine” value (from here on “Inhibition … (in %) At 10^-5 M adenosine”) is given as 100%. Further, the IC50 in data set [2] is 1000 nM. In addition, the “deaths after 14 days” value in data set [3] is recorded as “on death was registered”. Further, at 1 µM the inhibition in data set [4] was 86%.
Turning to `CCc1cc2ccccn2c1C(=O)c1cc(Br)c(O)c(Br)c1` [Ethyl H Br Br, 2-Ethyl-3-(3,5-dibromo-4-hydroxy-benzoyl)-indolizine], the inhibition at 10 µM in data set [5] is 98%. Also, the Tmax in data set [6] (human, plasma, read-out: time of highest plasmatic level) came to 5 h. Further, the “mean increase of urinary excretion of uric acid in 24 hours” value in data set [6] (24 hours) stood at 22%. This compound registered a lowering of uricemia in data set [6] (by the 5th hour) of 9%. Further, the “increase of urinary excretion of uric acid” value in data set [6] (period between 12th and 24th hour) worked out at 40%.
As for `CCc1cc2ccccn2c1C(=O)c1cc(Cl)c(O)c(Cl)c1` [Ethyl H Cl Cl, 2-Ethyl-3-(3,5-dichloro-4-hydroxy-benzoyl)-indolizine], in data set [5], the inhibition at 10 µM was determined as 98%.
Same read-out and setting: as for `CCc1cc2ccccn2c1C(=O)c1ccc(O)c(Cl)c1` [Ethyl H H Cl, 2-Ethyl-3-(3-chloro-4-hydroxy-benzoyl)-indolizine], the figure is 87%; as for `CCc1cc2ccccn2c1C(=O)c1ccc(O)c(OC)c1` [Ethyl H H OCH3, 2-Ethyl-2-(3-methoxy-4-hydroxy-benzoyl)-indolizine], 57%.
In the case of `CC(C)c1cc2ccccn2c1C(=O)c1cc(Br)c(O)c(Br)c1` [Isopropyl H Br Br, 2-Isopropyl-3-(3,5-dibromo-4-hydroxy-benzoyl)-indolizine], the inhibition at 10 µM in data set [5] was found to be 99%. In data set [7], this compound registered an inhibition at 1 µM of 84%.
Compound `CC(C)c1cc2ccccn2c1C(=O)c1cc(Cl)c(O)c(Cl)c1` [Isopropyl H Cl Cl, 2-Isopropyl-3-(3,5-dichloro-4-hydroxy-benzoyl)-indolizine] displayed an inhibition at 10 µM in data set [5] of 96%. Further, in data set [1], the “Inhibition … (in %) At 5.10^-5 M adenosine” value is 76%.
In data set [5], `CC(C)c1cc2ccccn2c1C(=O)c1ccc(O)c(Br)c1` [Isopropyl H H Br, 2-Isopropyl-3-(3-bromo-4-hydroxy-benzoyl)-indolizine] yielded an inhibition at 10 µM of 94%.
In data set [5], `CC(C)c1cc2ccccn2c1C(=O)c1ccc(O)c(Cl)c1` [Isopropyl H H Cl, 2-Isopropyl-3-(3-chloro-4-hydroxy-benzoyl)-indolizine] registered an inhibition at 10 µM of 88%.
On the same count and under the same terms, next, `Cc1c(Br)c2ccccn2c1C(=O)c1cc(Cl)c(O)c(Cl)c1` [Methyl Br Cl Cl, 1-Bromo-2-methyl-3-(3,5-dichloro-4-hydroxy-benzoyl)-indolizine]: 46%.
In turn, `Cc1c(Br)c2ccccn2c1C(=O)c1ccc(O)c(Cl)c1` [Methyl Br Cl H, 1-Bromo-2-methyl-3-(3-chloro-4-hydroxy-benzoyl)-indolizine] gave an inhibition at 10 µM in data set [5] of 44%.
Still for that read-out and setting: as for `Cc1cc2ccccn2c1C(=O)c1cc(Br)c(O)c(Br)c1` [Methyl H Br Br, 2-Methyl-3-(3,5-dibromo-4-hydroxybenzoyl)-indolizine], the figure is 91%; as for `Cc1cc2ccccn2c1C(=O)c1cc(Cl)c(O)c(Cl)c1` [Methyl H Cl Cl, 2-Methyl-3-(3,5-dichloro-4-hydroxy-benzoyl)-indolizine], 84%.
Compound `Cc1cc2ccccn2c1C(=O)c1ccc(O)c(Br)c1` [Methyl H H Br, 2-Methyl-3-(3-bromo-4-hydroxy-benzoyl)-indolizine] came in with an inhibition at 10 µM in data set [5] of 74%.
`O=C(c1cc(Br)c(O)c(Br)c1)c1c(-c2ccccc2)c(Br)c2ccccn12` [Phenyl Br Br Br, 1-Bromo-2-phenyl-3-(3,5-dibromo-4-hydroxy-benzoyl)-indolizine] came in with an inhibition at 10 µM in data set [5] of 48%. Also, in data set [1], the “Inhibition … (in %) At 5.10^-5 M adenosine” value is 22% and the “Inhibition … (in %) At 10^-5 M adenosine” value was found to be 53%.
Regarding `O=C(c1ccc(O)c(Br)c1)c1c(-c2ccccc2)c(Br)c2ccccn12` [Phenyl Br Br H, 1-Bromo-2-phenyl-3-(3-bromo-4-hydroxy-benzoyl)-indolizine], in data set [1], the “Inhibition … (in %) At 5.10^-5 M adenosine” value turned out to be 88% and the “Inhibition … (in %) At 10^-5 M adenosine” value is listed as 100%. Moreover, the IC50 in data set [2] was 2000 nM. Moreover, the “effect on the antiviral (anti-herpetic) activity of adenine arabinoside (Ara-A)” value in the data set on HSV-1 (KOS) is given as “potentiates the antiviral activity of adenine arabinoside”. For the same compound, the “deaths after 14 days” value in data set [3] is “on death was registered”. Further, the inhibition at 1 µM in data set [4] came out at 80%.
As to `CCCc1c(Br)c2ccccn2c1C(=O)c1cc(Br)c(O)c(Br)c1` [n-Propyl Br Br Br, 1-Bromo-2-n-propyl-3-(3,5-dibromo-4-hydroxy-benzoyl)-indolizine], 10 µM produced 95% inhibition in data set [5].
Consider `CCCc1c(Br)c2ccccn2c1C(=O)c1ccc(O)c(Br)c1` [n-Propyl Br Br H, 1-Bromo-2-n-propyl-3-(3-bromo-4-hydroxy-benzoyl)-indolizine], for which, in data set [5], the inhibition at 10 µM is 97%.
On the same count and under the same terms, as for `CCCc1c(Br)c2ccccn2c1C(=O)c1ccc(O)c(Cl)c1` [n-Propyl Br H Cl, 1-Bromo-2-n-propyl-3-(3-chloro-4-hydroxy-benzoyl)-indolizine], the figure is 84%.
